Patent publication US7893077B2, “Bisaryl-sulfonamides” (Amgen Inc., priority 2004, dated 2011)
pIC50: −log10 of the molar value.

Molecular target: T1, PPARγ (Homo sapiens, UniProt P37231)
T1 construct: made in house
T1 sequence (P37231 1-505): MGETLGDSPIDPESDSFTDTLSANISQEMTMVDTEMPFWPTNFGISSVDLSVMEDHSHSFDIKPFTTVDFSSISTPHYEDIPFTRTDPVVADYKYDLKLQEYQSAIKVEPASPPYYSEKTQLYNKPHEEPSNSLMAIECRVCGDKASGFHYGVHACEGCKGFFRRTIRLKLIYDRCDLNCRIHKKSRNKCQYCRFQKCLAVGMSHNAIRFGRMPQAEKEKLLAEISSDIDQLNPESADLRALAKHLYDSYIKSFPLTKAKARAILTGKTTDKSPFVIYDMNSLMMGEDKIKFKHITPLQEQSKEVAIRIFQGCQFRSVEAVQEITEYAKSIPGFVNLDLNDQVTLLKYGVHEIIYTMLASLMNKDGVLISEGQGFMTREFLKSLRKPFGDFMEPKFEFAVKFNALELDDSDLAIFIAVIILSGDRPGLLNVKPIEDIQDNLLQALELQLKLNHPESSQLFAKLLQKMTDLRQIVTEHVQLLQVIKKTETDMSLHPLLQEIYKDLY
Test: PPARγ ligand binding assay utilizing [3H]-BRL 49653 as the radioligand (filtration)
Settings: concentration required to reduce by 50% the specific binding of [3H]-BRL 49653
How it was run: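 Displacement of 10 nM [3H]-BRL 49653 from PPARγ-GST fusion protein in Tris-HCl pH 8.0 buffer with KCl, DTT, BSA and NP-40, 15 min incubation, then glutathione-bead capture for 1 h. Bound radioactivity counted after filtration washes; IC50 is concentration giving 50% loss of specific binding, reported in ranges.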

Compound | pIC50
CC(C)c1cc(NS(=O)(=O)c2ccc(C(F)(F)F)cc2Cl)nnc1Sc1ccc(S(=O)(=O)N2CCOCC2)cc1 [Compound 135, 3-(2′-chloro-4′-trifluoromethyl)phenylsulfonylamino-5-iso-propyl-6-(4″-N-morpholinesulfonyl)phenylthiopyridazine] | > 5.00
Cc1cc(NS(=O)(=O)c2ccc(C(F)(F)F)cc2Cl)nnc1Sc1ccc(S(=O)(=O)N2CCCCC2)cc1 [Compound 136, 2-Chloro-N-{5-methyl-6-[4-(piperidine-1-sulfonyl) -phenylsulfanyl]-pyridazin-3-yl}-4-trifluoromethyl-benzenesulfonamide] | > 6.00
Cc1cc(Sc2ccc(S(=O)(=O)N3CCCCC3)cc2)nnc1NS(=O)(=O)c1ccc(C(F)(F)F)cc1Cl [Compound 137, 2-Chloro-N-{4-methyl-6-[4-(piperidine-1-sulfonyl) -phenylsulfanyl]-pyridazin-3-yl}-4-trifluoromethyl-benzenesulfonamide] | > 5.00
Cc1cc(S(=O)(=O)Nc2cc(C)c(Sc3ccc(S(=O)(=O)N4CCCCC4)cc3)nn2)c(Cl)cc1Cl [Compound 138, 2,4-Dichloro-5-methyl-N-{5-methyl-6-[4-(piperidine-1-sulfonyl)-phenylsulfanyl]-pyridazin-3-yl}-benzenesulfonamide] | > 6.00
Cc1cc(S(=O)(=O)Nc2nnc(Sc3ccc(S(=O)(=O)N4CCCCC4)cc3)cc2C)c(Cl)cc1Cl [Compound 139, 2,4-Dichloro-5-methyl-N -{4-methyl-6-[4-(piperidine-1-sulfonyl)-phenylsulfanyl]-pyridazin-3-yl}-benzenesulfonamide] | > 6.00
Cc1cc(S(=O)(=O)Nc2ccc(Sc3ccc(S(=O)(=O)N4CCCCC4)cc3)nn2)c(Cl)cc1Cl [Compound 140, 2,4-Dichloro-5-methyl-N-{6-[4-(piperidine-1-sulfonyl) -phenylsulfanyl]-pyridazin-3-yl}-benzenesulfonamide] | > 6.00

Further lines, results first:

pIC50 | Compound
> 6.00 | CCCCc1cc(NS(=O)(=O)c2ccc(Cl)cc2Cl)nnc1Sc1ccc(S(=O)(=O)N2CCCCC2)cc1 [Compound 132, 3-(2′,4′-dichloro)phenylsulfonylamino-5-n-butyl-6-(4″-N-piperidinesulfonyl)phenylthiopyridazine]
> 6.00 | CCCCc1cc(NS(=O)(=O)c2ccc(Cl)cc2Cl)nnc1Sc1ccc(S(=O)(=O)C2CCCC2)cc1 [Compound 133, 3-(2′,4′-dichloro)phenylsulfonylamino-5-n-butyl-6-(4″-cyclopentanesulfonyl)phenylthiopyridazine]
> 6.00 | CCCCc1cc(NS(=O)(=O)c2ccc(C(F)(F)F)cc2Cl)nnc1Sc1ccc(S(=O)(=O)C2CCCC2)cc1 [Compound 134, 3-(2′-chloro-4′-trifluoromethyl)phenylsulfonylamino-5-n-butyl-6-(4″-cyclopentanesulfonyl)phenylthiopyridazine]
